US9283163B2, “Collagen stimulators and their use in the treatment of skin” (Avon Products, Inc., priority 2012, dated 2016)

Tested on: Normal Human dermal fibroblasts
Assay: Stimulation of collagen production: Procollagen Type-I C-Peptide EIA on conditioned media
Assay type: cell-based
Details: 0.0005% compound, 48 hours, p<0.05
Method: Cell Treatment: Normal Human dermal fibroblasts were grown in DMEM (Mediatech; cat. #: 15-013-CV) containing 10% Fetal Bovine Serum (Perbio; cat. #: SH30070.03), Penicillin/Streptomycin (Mediatech, Cat #30-001-C1), L-Glutamine (Mediatech; cat. #: 25-005-CI) at 37° C. and 10% CO2. Cells were stripped of serum overnight, followed by treatment with the compound of Formula I(b) (0.0005%) or vehicle (DMSO), in the absence of serum for 48 hours.
Reading was measured at 450 nm using a spectrophotometer.
Human dermal fibroblasts treated with 0.0005% the compound of Formula I(b) for 48 hours were analyzed by ELISA for expression levels of pro-collagen. […] All values are statistically significant at p<0.05.

In the case of `COc1ccc(Cc2nc(=O)c(CCC(=O)N3CCC(C)CC3)n[nH]2)cc1OC` [Formula I(b)], the “pro-collagen, relative to control, vehicle treated cells” value (ELISA, result in words) is reported as “significant increase” and the Procollagen (serum-free, procollagen in conditioned media by ELISA, vehicle (DMSO) control = 100%) is reported as 146%.
